Results from patent US10179143B2, “Anti-viral azide containing compounds” (LIFE TECHNOLOGIES CORPORATION, priority 2010, dated 2019).

Experiments:
[1] = tested on: Nuclear-GFP BacMam 2.0 Virus; experiment: Infectivity of PTM analog-labeled Nuclear-GFP BacMam 2.0 virus in U2-OS cells (nuclear-GFP expression); format: cell-based, baculovirus; details: BacMam virus labeled in Sf9 insect cells with 50 μM analog for 4 days; 20 or 50 uL virus on U2-OS cells overnight; FIG. 5
Text: Inhibition of insect cell baculovirus infectivity with azido fatty acid analogs: The BacMam system uses a modified insect cell virus (baculovirus) as a vehicle to efficiently deliver and express genes in mammalian cells. A Nuclear-GFP BacMam 2.0 expression system (Invitrogen, C10602) was used as a model to determine if PTM analog labeling of the virus would affect mammalian cell infectivity. Viruses were labeled with various PTM analogs and used to infect mammalian cells. Infectivity was determined by the expression of nuclear-GFP, as viral entry into the cell is required for expression of GFP protein. […]
Characterization of BacMam virus production: To verify, quantitate, and normalize the amount of enriched viruses obtained from insect cell supernatants, samples of each virus were lysed in SDS sample preparation buffer (SPB), sonicated with a probe tip sonicator, and heated at 90C to completely dissolve the viral proteins. Viral protein concentrations of the lysates were then determined. […]
Mammalian cell infection protocol: To determine if the PTM analog-labeled viruses retain the ability to infect mammalian cells, 50,000 U2-OS cells (human osteosarcoma cell line) were plated onto a 6 well-chamber glass bottom plate. […] The following day cells were imaged on AMG EVOS fluorescence microscope at 10× or 20× magnification using both white light and GFP filters (FIG. 5). […]

HIV = experiment: Luciferase reporter assay of infectivity of azide-labeled HIV on TZM/BI reporter cells; format: cell-based, HIVNL4-3; details: virus produced in CEMx174 cells spiked with the compound (fatty acids 50-100 μM, sugars 20-40 μM); normalized to p24; 12 hours on TZM/BI; single cycle replication system; FIGS. 3 and 4
Procedure: CEMx174 cells were transfected with HIVNL4-3 in a T-150 flask and the virus production was monitored by reverse transcriptase activity until peak virus production occurred (usually 7 to 9 days post transfection). Prior to transfection, the CEMx174 cells were spiked with the following azide-modified biomolecules: 15-azidopentadecanoic acid (50-100 μM), 12-azidododecanoic acid (50-100 μM), tetraacetylated N-azidoacetylgalactosamine (20-40 μM), and tetraacetylated N-azidoacetyl-D-mannosamine (20-40 μM).
Labeled virus was also obtained from the transfected cells. More specifically, virus-containing supernatants were collected and virus was purified through 20% sucrose as previously described (Graham, D.R. et al., Proteomics 2008, 8:4919-30). The purified virus was then mixed with the CLICK-IT® detection reagent, tetramethylrhodamine (TAMRA) alkyne and the CLICK-IT® Protein Reaction Buffer Kit (Invitrogen, Carlsbad, Calif.). Virus samples were run on a one-dimensional gel to reveal azide-labeled viral proteins (FIG. 2). […]
To examine the effect of the azide-modified biomolecules on the innate biology of the virus, the azide-labeled virus from the transfected cells was isolated and tested in cell infection studies. […] Viral infectivity was determined by measuring cellular luciferase activities with two different luciferase reagents.

[N-]=[N+]=NCCCCCCCCCCCCCCC(=O)O [15-azidopentadecanoic acid]
nuclear-GFP expression in U2-OS cells (viral entry) [1]: no nuclear-GFP expression

[N-]=[N+]=NCCCCCCCCCCCC(=O)O [12-azidododecanoic acid]
impact on the infectivity of the virus (cellular luciferase activities) (HIV): profound impact on the infectivity of the virus
nuclear-GFP expression in U2-OS cells (viral entry) [1]: no nuclear-GFP expression
